# Reference: US4563476A, “Substituted 5-hydroxy-2,3-dihydrobenzofurans and analogs thereof useful as anti-inflammatory agents” (Merck & Co., Inc., priority 1983, dated 1986)
# Experiments:
# [1] = test system: inflammatory responses elicited by topically applied phorbol myristate acetate (PMA) or topically applied arachidonic acid (AA); assay: Topical mouse ear assay (TME), edema by wet weight; format: in vivo, mice; conditions: PMA or AA not specified
# Method: The topical mouse ear assay (TME) is the method by which the novel compounds of the present invention are evaluated for its effect on inflammatory responses elicited by topically applied phorbol myristate acetate (PMA) or topically applied arachidonic acid (AA). The inflammatory responses may be in the form of edema (measured by wet weight); vascular permeability (measured by ^125 I-BSA accumulation); or PMN infiltration (measured by myeloperoxidase activity).
# Method: The right ears of mice (5 mice per group) were treated topically with either […] or 1000 μg AA alone or with the test compound in 25 μl of vehicle. The vehicle was water/pyridine/acetone (1:2:97). A control group of mice received the vehicle only. The mice were allowed food and water ad libitum during the treatment period; 2 hours for AA and 4 hours for PMA. The mice were sacrificed by cervical dislocation and a 6 mm diameter disc of tissue punched from both the treated and untreated ears. The tissue biopsies were immediately weighed and the weight increase of the treated ear relative to the weight of the untreated ear determined.
# For the determination of vascular permeability, […] ^125 I-bovine serum albumin (^125 I-BSA) was administered in 0.5 ml phosphate buffered saline 15 min prior to the topical application. At the termination of the experiment, the amount of radioactivity in both the treated and untreated ear biopsies was determined and the increased amount of radioactivity in the treated tissue relative to the amount of radioactive in the untreated tissue determined.
# As a measure of PMN infiltration, the amount of myeloperoxidase (MPO) activity in the same tissues was determined. The tissue biopsies were homogenized into 1 ml 0.5% hexadecyltrimethylammonium bromide and centrifuged for 45 min. at 1200×g. Aliquots 40 μl, of the supernatant phases were assayed for MPO activity by a colorimetric method devised by H. Dougherty for automated Titertek analysis. The MPO activity is expressed as the OD450 of the treated ear homogenate minus the OD450 of the non-treated ear homogenate.
# All of the data are expressed as the mean ±SEM, N=5 mice/group.
# [2] = test system: inflammatory responses elicited by topically applied phorbol myristate acetate (PMA) or topically applied arachidonic acid (AA); conditions: previously established; cited from earlier work
compound,measurement,setting,value
"CC(=O)c1ccc(NCc2cc3c(cc2O)CCO3)cc1 [A, 5-Hydroxy-6-(4-acetylphenyl)aminomethyl-2,3-dihydrobenzofuran]",Edema (% inhibition),[1]; Dosage 50 μg,44%
same,Edema (% inhibition),[1]; Dosage 100 μg,45%
same,Edema (% inhibition),[1]; Dosage 200 μg,60%
same,Edema (% inhibition),[1]; Dosage 400 μg,76%
C[C@@H]1C[C@H]2[C@@H]3CCC4=CC(=O)C=C[C@]4(C)[C@@]3(F)[C@@H](O)C[C@]2(C)[C@@]1(O)C(=O)CO [dexamethasone],activity in the topical mouse ear assay,[2],active
"COc1ccc2c(c1)c(CC(=O)O)c(C)n2C(=O)c1ccc(Cl)cc1 [Indomethacin, indomethacin]",Edema (% inhibition),[1]; Dosage 50 μg,24%
same,Edema (% inhibition),[1]; Dosage 100 μg,42%
same,Edema (% inhibition),[1]; Dosage 200 μg,46%
same,Edema (% inhibition),[1]; Dosage 400 μg,85%
same,activity in the topical mouse ear assay,[2],active
